Measured values reported in PubChem BioAssay (NCI).
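Assay format: 96-well plates, 48-hour exposure. Definition used: TGI = concentration required for complete inhibition of growth.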

Experiments:
Experiment in all cases: DTP human tumour cell line panel, 48 h
A498 renal = system: A498 renal
MDA-MB-231 breast = system: MDA-MB-231 breast
TK-10 renal = system: TK-10 renal
COLO 205 colon = system: COLO 205 colon
OVCAR-4 ovarian = system: OVCAR-4 ovarian
MDA-MB-435 = system: MDA-MB-435
K-562 leukemia = system: K-562 leukemia
MOLT-4 leukemia = system: MOLT-4 leukemia
MALME-3M melanoma = system: MALME-3M melanoma
NCI/ADR-RES ovarian = system: NCI/ADR-RES ovarian
A549 NSCLC = system: A549 NSCLC
786-0 renal = system: 786-0 renal
HOP-92 NSCLC = system: HOP-92 NSCLC
SF-295 CNS = system: SF-295 CNS
HL-60(TB) leukemia = system: HL-60(TB) leukemia
HCT-15 colon = system: HCT-15 colon
IGROV1 ovarian = system: IGROV1 ovarian
HOP-62 NSCLC = system: HOP-62 NSCLC
UACC-257 melanoma = system: UACC-257 melanoma
SN12C renal = system: SN12C renal
EKVX NSCLC = system: EKVX NSCLC
OVCAR-5 ovarian = system: OVCAR-5 ovarian
SK-MEL-2 melanoma = system: SK-MEL-2 melanoma
ACHN renal = system: ACHN renal
OVCAR-8 ovarian = system: OVCAR-8 ovarian
T-47D breast = system: T-47D breast
DU-145 prostate = system: DU-145 prostate
NCI-H226 lung = system: NCI-H226 lung
PC-3 prostate = system: PC-3 prostate
HT29 colon = system: HT29 colon
HCT-116 colon = system: HCT-116 colon
NCI-H460 lung = system: NCI-H460 lung
UO-31 renal = system: UO-31 renal
CCRF-CEM leukemia = system: CCRF-CEM leukemia
SK-MEL-5 melanoma = system: SK-MEL-5 melanoma
SNB-19 CNS = system: SNB-19 CNS
U251 CNS = system: U251 CNS
SW-620 colon = system: SW-620 colon
CAKI-1 renal = system: CAKI-1 renal
KM12 colon = system: KM12 colon
M14 melanoma = system: M14 melanoma
NCI-H522 lung = system: NCI-H522 lung
NCI-H23 lung = system: NCI-H23 lung
SNB-75 CNS = system: SNB-75 CNS
SK-OV-3 ovarian = system: SK-OV-3 ovarian
MCF7 breast = system: MCF7 breast
OVCAR-3 ovarian = system: OVCAR-3 ovarian
HCC-2998 colon = system: HCC-2998 colon
RXF 393 renal = system: RXF 393 renal
BT-549 breast = system: BT-549 breast
UACC-62 melanoma = system: UACC-62 melanoma
SK-MEL-28 melanoma = system: SK-MEL-28 melanoma
MDA-N = system: MDA-N
RPMI-8226 leukemia = system: RPMI-8226 leukemia
LOX IMVI melanoma = system: LOX IMVI melanoma
SF-268 CNS = system: SF-268 CNS

CCCCCC1=C2C(c3ccc(OC)cc3)=C(N)C(c3ccc(OC)cc3)=C3NC(=O)C(C=C1)C32 (stereo unspecified)
TGI (A498 renal): > 100 µM
TGI (MDA-MB-231 breast): > 100 µM
TGI (TK-10 renal): > 100 µM
TGI (COLO 205 colon): > 100 µM
TGI (OVCAR-4 ovarian): > 100 µM
TGI (MDA-MB-435): > 100 µM
TGI (K-562 leukemia): > 100 µM
TGI (MOLT-4 leukemia): > 100 µM
TGI (MALME-3M melanoma): 53.7 µM
TGI (NCI/ADR-RES ovarian): > 100 µM
TGI (A549 NSCLC): > 100 µM
TGI (786-0 renal): > 100 µM
TGI (HOP-92 NSCLC): 60.7 µM
TGI (SF-295 CNS): > 100 µM
TGI (HL-60(TB) leukemia): > 100 µM
TGI (HCT-15 colon): > 100 µM
TGI (IGROV1 ovarian): > 100 µM
TGI (HOP-62 NSCLC): > 100 µM
TGI (UACC-257 melanoma): > 100 µM
TGI (SN12C renal): > 100 µM
TGI (EKVX NSCLC): > 100 µM
TGI (OVCAR-5 ovarian): > 100 µM
TGI (SK-MEL-2 melanoma): > 100 µM
TGI (ACHN renal): > 100 µM
TGI (OVCAR-8 ovarian): > 100 µM
TGI (T-47D breast): > 100 µM
TGI (DU-145 prostate): > 100 µM
TGI (NCI-H226 lung): 96.8 µM
TGI (PC-3 prostate): > 100 µM
TGI (HT29 colon): > 100 µM
TGI (HCT-116 colon): > 100 µM
TGI (NCI-H460 lung): > 100 µM
TGI (UO-31 renal): > 100 µM
TGI (CCRF-CEM leukemia): > 100 µM
TGI (SK-MEL-5 melanoma): > 100 µM
TGI (SNB-19 CNS): > 100 µM
TGI (U251 CNS): > 100 µM
TGI (SW-620 colon): > 100 µM
TGI (CAKI-1 renal): > 100 µM
TGI (KM12 colon): > 100 µM
TGI (M14 melanoma): > 100 µM
TGI (NCI-H522 lung): 68 µM
TGI (NCI-H23 lung): > 100 µM
TGI (SNB-75 CNS): > 100 µM
TGI (SK-OV-3 ovarian): > 100 µM
TGI (MCF7 breast): > 100 µM
TGI (OVCAR-3 ovarian): > 100 µM
TGI (HCC-2998 colon): > 100 µM
TGI (RXF 393 renal): 54.1 µM
TGI (BT-549 breast): > 100 µM
TGI (UACC-62 melanoma): > 100 µM
TGI (SK-MEL-28 melanoma): > 100 µM
TGI (MDA-N): > 100 µM
TGI (RPMI-8226 leukemia): > 100 µM
TGI (LOX IMVI melanoma): > 100 µM
TGI (SF-268 CNS): 38.9 µM
